The record followed here is patent publication US20250295686A1, “COMBINATION DECITABINE AND MPS1 INHIBITOR THERAPY TO PRIME CANCER IMMUNOGENICITY” (Dana-Farber Cancer Institute, Inc., priority 2021, published 2025).

Entries after “also recorded” stand apart in the source; their conditions may differ.

For assay [1], the system named is H1944 cells. Briefly: Cell viability assay to determine an IC50 (CellTiter-Glo). The format is cell-based, human. The source says:
Due to their particular hypersensitivity, H1944 cells were utilized as a model system in which to conduct an unbiased screen of cytotoxic chemotherapies or targeted DNA-damaging agents for their ability to upregulate endogenous 2′3′-cGAMP production following pulse treatment, including cGAS-deficient H2122 cells as a counter-screen (FIGS. 3A and 3B). […] Additionally, hydroxyurea or nocodazole were included as controls to induce S-phase or M-phase cell cycle arrest. The IC50 was identified for each compound for cell viability in H1944 cells, and this concentration was utilized for the screen (FIG. 4A and Table 1). It was shown that each agent induced cellular cytotoxicity and/or DNA-damage response at this concentration, as measured by the induction of propidium iodide positive cells, cleaved PARP fragments, or histone TH2A.X expression (FIGS. 4B and 4C).
3000 cells were plated onto 96-well plates, and then cultured for 72 hours in the presence of each DNA-damaging agent at the indicated concentration. Values of CellTiter-Glo Luminescent Cell Viability assay (Promega) […] were normalized to vehicle treated cells. Plates were read on a Tecan Infinite M200 Pro plate reader and analysis was performed using Prism7 (GraphPad Software). All conditions were tested in triplicate.

For assay [2], the system named is KL NSCLC cell lines. Briefly: CXCL10 ELISA after exogenous CDN exposure, KL NSCLC cell lines. It is filed as cell-based, human. The conditions noted are these: 24 hours. The source says:
Treatment with 2′3′-cGAMP or ADU-S100 was utilized to examine the sensitivity of KP or KL NSCLC cell lines to exogenous CDN exposure. […] KL cell response to extracellular CDNs was still modest as compared with endothelial cells (HUVEC) or monocytic THP-1 cells, which also have different membrane permeabilities (FIG. 2C) (Cordova et al., 2021; Luteijn et al., 2019; Ritchie et al., 2019).
(§1) Human IFN-β (Thermo Fisher Scientific, Cat. #414101), human CXCL10 (R&D systems, Cat. #DIP100), mouse CXCL10 (R&D systems, Cat. #DY466), and 2′3′-cGAMP (Cayman Chemical, Cat. #501700) ELISAs were performed according to the manufacturer's instructions. Conditioned media from each cell lines was collected after 24 hour culture. Values represent the average of four replicates from at least two independent experiments (biological replicates).

Assay [3] relates to H1944 cells. Briefly: Cell cycle analysis through propidium iodide staining. The following applies: 48 hours, 200 nM CFI-402257, 2.5 μM cisplatin, 5 μM etoposide, 500 nM pemetrexed, 50 μM hydroxyurea. The format is cell-based, human. The source says: For cell cycle analysis, cells were stained by BD CycleTEST™ Plus DNA according to the manufacturer's instructions, and then analyzed by FACSCanto 11 (BD Biosciences). For cell viability analysis, cells were stained by propidium iodide (PI) according to the manufacturer's instructions of Annexin V using Alexa Fluor 488 Annexin V dead cell apoptosis kit (Thermo Fisher Scientific, Cat. #V13245) and then analyzed by FACSCanto 11 (BD Biosciences).

Assay [4] deals with 393P-KL cells. In words: Efficacy studies in 393P-KL syngeneic model (129S2/SvPasCrl mice). The conditions noted are these: after 12 weeks; decitabine day 1-7 and/or BAY-1217389 day 8, 9, 21, 22; durable response = tumor volume less than 250 mm^3 for at least 50 days after treatment. It is filed as in vivo, mouse. The protocol:
To test this, an efficacy study was performed utilizing the same short-term pulse regimen of the sequential therapy with DAC/MPS1i in 393P-KL syngeneic model. […] Additionally, to further assess the role of an intact immune system, immune-deficient NSG mice were used.

Assay [5] concerns STING pathway. Briefly: Immunoblot of STING downstream signaling in H1944 cells treated with MPS1 inhibitors. It is filed as cell-based, human. The following applies: 100 nM BAY-1217389, 250 nM CC-671, compared with 200 nM CFI-402257. Here is the method:
It was also shown that MPS1 inhibitor-induced cellular cytotoxicity was dependent upon intact STING and STAT1 (FIG. 3K).
On the other hand, reconstitution of STING in STING^absent KL cells such as A549 and H23 cells also sensitized them to MPS1 inhibition, leading to CXCL10 secretion and STAT1 activation (FIGS. 3J, 4H). It was determined that MPS1 inhibitor-induced cellular cytotoxicity and growth arrest in KL cells required activation of STING signaling following 48-hour pulse treatment, and to a lesser degree during continuous 96 hour SAC inhibition, which is also capable of arresting KP cells (FIGS. 3K, 4I-4K). […] Phosphorylation of TBK1 and IFN-β secretion, which are upstream of IFNAR1, were also attenuated by IFNAR1 depletion (FIGS. 3L, 4M, and 4N).
(§2) Cells were lysed in RIPA buffer containing 1× protease inhibitors (Roche, Cat #11-836-145-001) and phosphatase inhibitors (50 mmol/L NaF and 100 mmol/L Na3VO4). […] Imaging of blots and quantitation of bands was performed using the LICOR Odyssey system, or LAS-3000 (Fujifilm).
A general note: Immunoblotting shows a protein as a band on a membrane.

Assay [6] deals with STING pathway. Briefly: Pre-treatment with epigenetic inhibitor followed by pulse MPS1i in STING^Low KL cells (ELISA, immunoblot, immunofluorescence). It is filed as cell-based, human.
Excerpt: However, since KL cells epigenetically silence STING, unleashing STING expression might robustly sensitize them to MPS1 inhibition, including cell lines with baseline STING absence. Pre-treatment with the EZH2 inhibitor GSK126, which is able to de-repress STING in STING^Low KL cells lines, H1944, and H1355 cells, was explored (Kitajima et al., 2019) (FIGS. 8B and 8C).
as §1, §2
After being grown on chamber slides (CellTreat, Cat #229168) and subjected to various treatment conditions, cells were fixed and permeabilized according to standard protocols. […] Slides were imaged with the Nikon Eclipse 80i microscope, and colocalization was determined using CoLoc2 in ImageJ.
A general note: In an ELISA, binding on a coated surface is turned into a signal by an enzyme label.

[7] abbreviates: Homo sapiens, NCI-H1944, 72 hours with drug.

Usually IC50 stands for the point on the concentration scale where inhibition reaches its midpoint. Read a low IC50 as inhibition by little substance. For the molecule `CCN(CCCOc1ccc2c(Nc3cc(CC(=O)Nc4cccc(F)c4)n[nH]3)ncnc2c1)CCOP(=O)(O)O` [barasertib], the half-inhibitory concentration (IC50) in assay [1] (setting [7]) came out at 160 nM.

In assay [1] (setting [7]), `O=C(c1cc(Cc2n[nH]c(=O)c3ccccc23)ccc1F)N1CCN(C(=O)C2CC2)CC1` [olaparib] gave an IC50 of 27700 nM. The same measure, in the same setting: the result for `Cc1cc(-c2cnn3c(NC[C@H]4C[C@@](C)(O)C4)cc(Oc4cccnc4)nc23)ccc1C(=O)NC1CC1` [CFI-402257] reads 254 nM.

In the case of `Nc1nc2c(ncn2[C@@H]2O[C@@H]3COP(=O)(O)O[C@H]4[C@@H](O)[C@H](n5cnc6c(N)ncnc65)O[C@@H]4COP(=O)(O)O[C@@H]2[C@@H]3O)c(=O)[nH]1` [2′3′-cGAMP, 2′3′-cyclic GMP-AMP], in assay [2] (A549, H23, A427, up to 100 μM), the “CXCL10 secretion, STING^Absent KL cell lines” value is reported as “failed to respond”. Further, in assay [2] (H1944, H2122, H647, H1355, 3.125-100 μM), the “CXCL10 secretion, STING^Low KL cells” value is given as “dose-dependent manner”. For `C[C@@H]1COCCN1c1cc(C2([S@](C)(=N)=O)CC2)nc(-c2cc[nH]c3nccc2-3)n1` [ceralasertib], inhibition in assay [1] (setting [7]) was half-maximal at 1080 nM (IC50). The same measure, in the same setting: the result for `O=C(O)[C@]1(Cc2cccc(Nc3nccs3)n2)CC[C@@H](Oc2cccc(Cl)c2F)CC1` [MK5108] reads 3920 nM; that for `CC[C@@H]1C(=O)N(C)c2cnc(Nc3ccc(C(=O)N[C@H]4CC[C@H](N5CCN(CC6CC6)CC5)CC4)cc3OC)nc2N1C(C)C` [volasertib], 8.46 nM. Same read-out and setting: the result for `COc1cc([C@@H]2c3cc4c(cc3[C@@H](O[C@@H]3O[C@@H]5CO[C@@H](C)O[C@H]5[C@H](O)[C@H]3O)[C@H]3COC(=O)[C@H]23)OCO4)cc(OC)c1O` [etoposide] reads 4720 nM; that for `COc1cccc(OCCCN)c1-c1cc(Nc2cnc(C#N)cn2)n[nH]1` [prexasertib], 11.3 nM. As for `COC(=O)Nc1nc2ccc(C(=O)c3cccs3)cc2[nH]1` [nocodazole], the IC50 in assay [1] (setting [7]) stood at 60.1 nM. In assay [1] (72 hours with drug), `N.N.[Cl][Pt][Cl]` [cisplatin] returned a half-inhibitory concentration (IC50) of 3270 nM. In addition, the cell cycle status result in assay [3] is “strongly induced G2/M-arrest”. In the case of `Nc1ncn([C@H]2C[C@H](O)[C@@H](CO)O2)c(=O)n1` [decitabine], the “durable, long-term response” value in assay [4] was 2/8. Turning to `C=CCn1c(=O)c2cnc(Nc3ccc(N4CCN(C)CC4)cc3)nc2n1-c1cccc(C(C)(C)O)n1` [MK1775], in assay [1] (setting [7]), the IC50 came to 68.5 nM. In turn, `NC(=O)NO` [hydroxyurea] showed an IC50 in assay [1] (setting [7]) of 34600 nM. Moreover, the cell cycle status entry in assay [3] was “induced S-phase arrest”. In assay [1] (setting [7]), `CN(Cc1cnc2nc(N)nc(N)c2n1)c1ccc(C(=O)N[C@@H](CCC(=O)O)C(=O)O)cc1` [methotrexate] gave an IC50 of 160 nM. On to `Nc1nc2[nH]cc(CCc3ccc(C(=O)N[C@@H](CCC(=O)O)C(=O)O)cc3)c2c(=O)[nH]1` [pemetrexed], for which the IC50 in assay [1] (setting [7]) stood at 612 nM. Moreover, in assay [3], the cell cycle status entry is “induced S-phase arrest”.

For the molecule `CNC(=O)c1ccc(Nc2nc(OC3CCCC3)c3c(-c4ccc5nc(C)oc5c4)c[nH]c3n2)c(OC)c1` [CC-671], the “STING downstream signaling, cGAS-dependent (immunoblot)” value in assay [5] was “upregulated to the same extent; also recorded: induced similar cGAS dependent activation of STING signaling”.

Take `COc1ccc(Oc2cc(NCCC(F)(F)F)c3ncc(-c4ccc(C(=O)NC5CC5)c(C)c4)n3n2)c(F)c1F` [BAY-1217389]: the “durable, long-term response” value in assay [4] worked out at 0 mice. Besides, the “STING downstream signaling, cGAS-dependent (immunoblot)” value in assay [5] is “upregulated to the same extent; also recorded: induced similar cGAS dependent activation of STING signaling”. With `CCC1=C[C@@H]2CN(C1)Cc1c([nH]c3ccccc13)[C@@](C(=O)OC)(c1cc3c(cc1OC)N(C)[C@H]1[C@@](O)(C(=O)OC)[C@H](OC(C)=O)[C@]4(CC)C=CCN5CC[C@]31[C@@H]54)C2` [vinorelbine], in assay [1] (setting [7]), the IC50 was 22.2 nM. In the case of `CC[C@H](C)n1cc(C)c2c(C(=O)NCc3c(C)cc(C)[nH]c3=O)cc(-c3ccc(N4CCNCC4)nc3)cc21` [GSK126], in assay [6] (H1944 cells, 5 μM GSK126 combination with 200 nM CFI-402257), the STING levels entry is “upregulated STING levels”. In addition, the “CXCL10 and IFN-β secretion induced by pulse MPS1i treatment after pre-treatment” value in assay [6] (H1944 or H1355 cells, 5 μM GSK126 pre-treatment, then 200 nM CFI-402257 or 100 nM BAY-1217389) was “markedly enhanced”.
